Patent US10167300B2, “Metalloenzyme inhibitor compounds as fungicides” (priority 2014, dated 2019)
Where two headings read alike, the source gives them in different places.

Assay: Type B (low volume, EC formulation, track sprayer 200 L/ha) assay, leaf blotch of wheat, SEPTTR field isolate (FI SEPTTR)
Format: in vivo, Mycosphaerella graminicola on wheat plants (variety Yuma)
Conditions: Zymoseptoria tritici, 72 h, 100 g/ha
Description: Example A: Evaluation of Fungicidal Activity: Leaf Blotch of Wheat (Mycosphaerella graminicola; Anamorph: Septoria tritici; Bayer Code SEPTTR)
For Type A assays, technical grades of the experimental fungicides in Table 4 below were dissolved in acetone, and then mixed with nine volumes of water containing 110 ppm Triton X-100. The fungicide solutions were applied onto wheat seedlings using an automated booth sprayer. For Type B assays, emulsifiable concentrate (EC) formulations of technical grades of the experimental fungicides in Table 4 below were prepared at 10% (w/v), and then mixed with 150 volumes of 0.1% Trycol 5941. These solutions were applied onto wheat seedlings using an automated track sprayer at 200 L/ha. All sprayed plants were allowed to air dry prior to further handling.
Wheat plants (variety Yuma) were grown from seed in a greenhouse in 50% mineral soil/50% soil-less Metro mix until the first leaf was fully emerged, with 7-10 seedlings per pot. Prior to or after application of experimental fungicides, plants were inoculated either with spores of a standard laboratory SEPTTR isolate (SI SEPTTR) or with spores from a SEPTTR field isolate collected from Wellsbourne, England in 2012 (FI SEPTTR). After inoculation the plants were kept for 3 days at 20° C. in 100% relative humidity (one day in a dark dew chamber followed by two days in a lighted dew chamber). Plants were then transferred to a 20° C. greenhouse for disease development. When disease symptoms were fully expressed on untreated plants, infection levels on treated plants were assessed on a scale of 0 to 100 percent disease severity. Percent disease control was calculated using the ratio of disease severity on treated plants relative to untreated plants.

[1] = field isolate, low volume EC, 3 Day Curative, wheat (Yuma), read-out: Disease Control, FI SEPTTR Type B Assay (100 g/ha) 3 DC
[2] = field isolate, low volume EC, 3 Day Protectant, wheat (Yuma), read-out: Disease Control, FI SEPTTR Type B Assay (100 g/ha) 3 DP
[3] = SEPTTR field isolate, low volume Type B assay, 3 Day Curative, wheat leaf blotch, read-out: Disease Control, FI SEPTTR Type B Assay (100 g/ha) 3 DC
[4] = SEPTTR field isolate, low volume Type B assay, 3 Day Protectant, wheat leaf blotch, read-out: Disease Control, FI SEPTTR Type B Assay (100 g/ha) 3 DP

SMILES	pest or weed control at 100 g/ha [1] [%]	pest or weed control at 100 g/ha [2] [%]	pest or weed control at 100 g/ha [3] [%]	pest or weed control at 100 g/ha [4] [%]
COC(c1cncnc1)(c1ccc(-c2ccc(C(C)(C)C#N)cc2F)cn1)C(C)(C)C (centres unmarked) [Compound 228]	80 to 100	80 to 100	–	–
COC(c1cncnc1)(c1ccc(-c2ccc(C(C)(C)C#N)cc2C)cn1)C(C)(C)C (centres unmarked) [Compound 267]	–	–	60 to 79	80 to 100
CC(C)(C)C(O)(c1cncnc1)c1ccc(-c2ccc(C3(C#N)CC3)cc2F)cn1 (centres unmarked) [Compound 236]	80 to 100	80 to 100	–	–
CC(C)(C)C(O)(c1cncnc1)c1ccc(-c2ccc(C3(C#N)CCC3)cc2F)cn1 (centres unmarked) [Compound 251]	80 to 100	80 to 100	–	–
CCC(OC)(c1cncnc1)c1ccc(-c2ccc(OC(F)(F)F)cc2F)cn1 (centres unmarked) [Compound 269]	–	–	40 to 59	80 to 100
COc1ncncc1C(O)(c1ccc(-c2ccc(OCC(F)(F)F)cn2)cn1)C(C)(C)C (centres unmarked) [Compound 186]	40 to 59	80 to 100	–	–
CCC(O)(c1cncnc1)c1ccc(-c2ccc(OC(F)(F)F)cc2)cn1 (centres unmarked) [Compound 258]	–	–	< 40	60 to 79
CSc1cc(C(C)(C)C#N)ccc1-c1ccc(C(O)(c2cncnc2)C(C)(C)C)nc1 (centres unmarked) [Compound 216, 2-(4-(6-(1-hydroxy-2,2-dimethyl-1-(pyrimidin-5-yl)propyl)pyridin-3-yl)-3-(methylthio)phenyl)-2-methylpropanenitrile]	80 to 100	80 to 100	–	–
CC#CC(OC)(c1cncnc1)c1ccc(-c2ccc(OC(F)(F)F)cc2)cn1 (centres unmarked) [Compound 217]	< 40	< 40	–	–
CC(C)(C)C(O)(c1ccc(-c2ccc(OC(F)(F)F)cc2)cn1)c1cnccn1 (centres unmarked) [Compound 207]	40 to 59	60 to 79	–	–
CC(C)(C#N)c1ccc(-c2ccc(C(O)(c3cnccn3)C(C)(C)C)nc2)cc1 (centres unmarked) [Compound 188]	60 to 79	80 to 100	–	–
CCOC(C)(c1cncnc1)c1ccc(-c2ccc(OC(F)(F)F)cc2F)cn1 (centres unmarked) [Compound 215]	< 40	< 40	–	–
CC(C)(C)C(O)(c1ccc(-c2ccc(OCC(F)(F)F)cc2)cn1)c1cnccn1 (centres unmarked) [Compound 225]	80 to 100	60 to 79	–	–
COC(c1cncnc1)(c1ccc(-c2ccc(C3(C#N)CC3)cc2)cn1)C(C)(C)C (centres unmarked) [Compound 192]	80 to 100	80 to 100	–	–
CC#CC(OCC)(c1cncnc1)c1ccc(-c2ccc(OC(F)(F)F)cc2)cn1 (centres unmarked) [Compound 242]	< 40	40 to 59	–	–
COc1ncncc1C(O)(c1ccc(-c2ccc(C(C)(C)C#N)cc2F)cn1)C(C)(C)C (centres unmarked) [Compound 256]	80 to 100	80 to 100	–	–
CC(C)(C#N)c1ccc(-c2ccc(C(O)(c3cncnc3)C(C)(C)C)nc2)c(C#N)c1 (centres unmarked) [Compound 175, 5-(2-cyanopropan-2-yl)-2-(6-(1-hydroxy-2,2-dimethyl-1-(pyrimidin-5-yl)propyl)pyridin-3-yl)benzonitrile]	80 to 100	80 to 100	–	–
OC(c1cncnc1)(c1ccc(-c2ccc(OC(F)(F)F)cc2F)cn1)C1CC1 (centres unmarked) [Compound 184]	< 40	40 to 59	–	–
CC(C)(C)C(O)(c1cncnc1)c1ccc(-c2ccc(I)cc2)cn1 (centres unmarked) [Compound 165, 1-(5-(4-iodophenyl)pyridin-2-yl)-2,2-dimethyl-1-(pyrimidin-5-yl)propan-1-ol]	80 to 100	80 to 100	–	–
COc1ncncc1C(O)(c1ccc(-c2ccc(OC(F)(F)F)cc2C)cn1)C(C)(C)C (centres unmarked) [Compound 222]	40 to 59	60 to 79	–	–
CCC(OC)(c1cncnc1)c1ccc(-c2ccc(OC(F)(F)F)cc2)cn1 (centres unmarked) [Compound 213]	60 to 79	60 to 79	–	–
COC(C)(c1cncnc1)c1ccc(-c2ccc(OC(F)(F)F)cc2)cn1 (centres unmarked) [Compound 241]	< 40	40 to 59	–	–
COc1ncncc1C(O)(c1ccc(-c2ccc(OCC(F)(F)F)cc2)cn1)C(C)(C)C (centres unmarked) [Compound 203]	40 to 59	80 to 100	–	–

SMILES	pest or weed control at 100 g/ha [1] [%]	pest or weed control at 100 g/ha [2] [%]	pest or weed control at 100 g/ha [3] [%]	pest or weed control at 100 g/ha [4] [%]
CC(C)(C)C(O)(c1cncnc1)c1ccc(-c2c(F)cc(OC(F)(F)F)cc2F)cn1 (centres unmarked) [Compound 210]	80 to 100	80 to 100	–	–
CC(C)(C#N)c1ccc(-c2ccc(C(O)(c3cncnc3)C(C)(C)C)nc2)c(F)c1 (centres unmarked) [Compound 226]	80 to 100	80 to 100	–	–
C#CCOC(C#CC)(c1cncnc1)c1ccc(-c2ccc(OC(F)(F)F)cc2F)cn1 (centres unmarked) [Compound 248]	< 40	40 to 59	–	–
C#CCOC(O)(c1cncnc1)c1ccc(-c2ccc(OC(F)(F)F)cc2)cn1 (centres unmarked) [Compound 243]	< 40	80 to 100	–	–
CCOC(CC)(c1cncnc1)c1ccc(-c2ccc(OC(F)(F)F)cc2)cn1 (centres unmarked) [Compound 244]	< 40	40 to 59	–	–
C#CCOC(c1cncnc1)(c1ccc(-c2ccc(OC(F)(F)F)cc2F)cn1)C(C)(C)C (centres unmarked) [Compound 189]	40 to 59	80 to 100	–	–
CCOC(c1cncnc1)(c1ccc(-c2ccc(OC(F)(F)F)cc2)cn1)C1CC1 (centres unmarked) [Compound 232]	< 40	60 to 79	–	–
COC(C)(c1cncnc1)c1ccc(-c2ccc(OC(F)(F)F)cc2F)cn1 (centres unmarked) [Compound 206]	< 40	40 to 59	–	–
COC(c1cncnc1)(c1ccc(-c2ccc(OCC(F)(F)F)cc2)cn1)C(C)(C)C (centres unmarked) [Compound 257]	–	–	60 to 79	60 to 79
Cc1cc(C(C)(C)C#N)ccc1-c1ccc(C(O)(c2cncnc2)C(C)(C)C)nc1 (centres unmarked) [Compound 223]	80 to 100	80 to 100	–	–
CC(C)(C)C(O)(Cc1cccnc1)c1ccc(-c2ccc(C3(C#N)CC3)cc2)cn1 (centres unmarked) [Compound 227]	< 40	40 to 59	–	–
CC(C)(C)c1ccc(-c2ccc(C(O)(Cc3cccnc3)C(C)(C)C)nc2)cc1 (centres unmarked) [Compound 201]	60 to 79	80 to 100	–	–
CC#CC(O)(c1cncnc1)c1ccc(-c2ccc(OC(F)(F)F)cc2)cn1 (centres unmarked) [Compound 266]	–	–	< 40	60 to 79
COC(c1cncnc1)(c1ccc(-c2ccc(OC(F)(F)F)cc2)cn1)C(C)C (centres unmarked) [Compound 194]	< 40	80 to 100	–	–
CCC(O)(c1cncnc1)c1ccc(-c2ccc(OC(F)(F)F)cc2F)cn1 (centres unmarked) [Compound 205]	40 to 59	80 to 100	–	–
COC(c1cncnc1)(c1ccc(-c2ccc(OC(F)(F)F)cc2F)cn1)C1CC1 (centres unmarked) [Compound 200]	< 40	80 to 100	–	–
CC(C)(C#N)c1ccc(-c2ccc(C(O)(c3cncc(F)c3)C(C)(C)C)nc2)cc1 (centres unmarked) [Compound 262]	–	–	80 to 100	80 to 100
CCOC(c1cncnc1)(c1ccc(-c2ccc(OC(F)(F)F)cc2)cn1)C(C)C (centres unmarked) [Compound 272]	–	–	< 40	60 to 79
CO/N=C(/C)c1ccc(-c2ccc(C(O)(c3cncnc3)C(C)(C)C)nc2)cc1 (centres unmarked) [Compound 132, (Z)-1-(4-(6-(1-hydroxy-2,2-dimethyl-1-(pyrimidin-5-yl)propyl)pyridin-3-yl)phenyl)ethanone O-methyl oxime]	80 to 100	80 to 100	–	–
CC(C)(C)C(O)(Cc1cncnc1)c1ccc(-c2ccc(C3(C#N)CC3)cc2)cn1 (centres unmarked) [Compound 178]	< 40	60 to 79	–	–
COc1ncncc1C(O)(c1ccc(-c2ccc(OCC(F)(F)F)nc2)cn1)C(C)(C)C (centres unmarked) [Compound 218]	< 40	80 to 100	–	–
CCOC(c1cncnc1)(c1ccc(-c2ccc(OC(F)(F)F)cc2F)cn1)C(C)(C)C (centres unmarked) [Compound 220]	< 40	80 to 100	–	–
COc1ncncc1C(O)(c1ccc(-c2ccc(Cl)cc2)cn1)C(C)(C)C (centres unmarked) [Compound 247]	< 40	80 to 100	–	–
